Assay results reported in patent publication US11155576B2, “Synthetic peptides, enzymatic formation of pericellular hydrogels/nanofibrils, and methods of use” (BRANDEIS UNIVERSITY, priority 2014, dated 2021).

Experiments:
HeLa cells [1] = assay: Pericellular hydrogelation on HeLa cells (optical images); format: cell-based, human
Protocol: (§1) An 11.2 mM (8.09 mg/mL) stock solution of D-2a was prepared in ddH2O. The pH was adjusted to 7.4 using 1N NaOH. 2×10^5 cells in exponential growth phase were seeded in 35 mm Petri dish with 1 mL complete culture medium. Following overnight incubation, the medium was replaced with 1 mL of medium containing D-2a (diluted from the stock solution immediately prior to use). Petri dishes were incubated at 37° C. for two hours. Next, dishes were removed from the incubator and titled on a bench to visualize the pericellular hydrogel. Prior to co-incubation with phosphatase inhibitors, cells were washed three times with medium containing Pierce phosphatase inhibitor cocktail (Thermo) (contains sodium floride, sodium orthovanadate, sodium pyrophosphate, and beta-glycerophosphate). Next, 1 mL of medium containing both the inhibitor cocktail and D-2a was applied to the cells.

HeLa cells [2] = assay: LC-MS composition of pericellular hydrogel/nanofibrils and suspension medium of HeLa cells; format: in vitro ADME, human
[3] = tested on: secretory phosphatases present in HeLa cell conditioned medium; assay: Hydrogelation in HeLa cell conditioned medium; format: biochemical, human; conditions: 48 hours
Protocol: 2×10^5 of cells in exponential growth phase were seeded in a 35 mm Petri dish with 1 mL complete culture medium. Following overnight incubation, 1 mL of new medium was replaced and incubated for 24 h at 5% CO2, 37° C. The medium was next removed and centrifuged at 10,000 rpm for 5 minutes. The suspension was placed into a 1.5 mL Eppendorf® tube and stored at −20° C. Stored conditioned medium was thawed and warmed to 37° C. in water bath immediately before use.
HeLa cell conditioned medium (“CM”) dephosphorylates D-2a to form D-2b nanofibrils.

Ect1/E6E7 cells = assay: Pericellular hydrogelation on Ect1/E6E7 cells; format: cell-based, human; conditions: 560 μM, prolonged incubation time of 48 hours
Protocol: as §1
Ect1/E6E7 cells (immortalized normal human cervical epithelial cells, which have same tissue and organ origins as HeLa cells) were treated with the same procedure as described for HeLa cells above. […] The difference of hydrogel/nanonets formation by D-2a conversion to D-2b on HeLa cells and Ect1/E6E7 cells agrees with the notion that HeLa cells have higher levels of phosphatase activity than Ect1/E6E7 cells (FIG. 9).

[4] = Cell viability assay (MTT), HeLa; format: cell-based, human; conditions: human, HeLa cells, 48 hour incubation
Protocol: (§2) Cells in exponential growth phase were seeded in a 96 well plate at a concentration of 2×10^4 cells/well. The cells were allowed to attach to the wells for 24 hours at 37° C., 5% CO2. The culture medium was removed and 100 μL culture medium containing compounds (immediately diluted from fresh prepared stock solution of 10 mM) at gradient concentrations (0 μM as the control) was placed into each well. After culturing at 37° C., 5% CO2 for 48 hours, each well was added by 10 μL of 5 mg/mL MTT (3-(4,5-dimethylthiazoL-2-yl)-2,5-diphenyltetrazolium bromide), and the plated cells were incubated in the dark for 4 hours. 100 μL 10% SDS with 0.01M HCl was added to each well to stop the reduction reaction and to dissolve the purple. After overnight incubation of the cells at 37° C., the OD at 595 nm of the solution was measured in a microplate reader. Data represent the mean±standard deviation of three independent experiments.

[5] = Cell viability assay (MTT), Ect1/E6E7; format: cell-based; conditions: human, Ect1/E6E7 cells, read-out: Cells remaining viable
Protocol: as §2

MES-SA/dx5 cells [6] = assay: Cell viability assay (MTT), MES-SA/dx5; format: cell-based, human; conditions: 280 μM; multi-drug resistant cells
Protocol: as §2

active Caspase 3 = assay: Apoptosis pathway assay (ELISA), active Caspase 3; format: cell-based, human; conditions: HeLa cells, 280 μM, at 24 and 32 hours of incubation
Protocol: (§3) The apoptosis pathway was evaluated using the PathScan® Apoptosis Multi-Target Sandwich ELISA Kit (Cell Signaling Technology) following the supplied protocol. Cells in exponential growth phase were seeded in a 6 cm Petri dish at a concentration of 10×10^5 cells/dish (5 dishes). Cells were allowed to attach to the wells for 24 hours at 37° C., 5% CO2. The culture medium was removed and 5 mL medium containing 280 μM D-2a (immediately diluted from fresh prepared stock solution of 11.2 mM) was placed into each dish. At 0, 6, 12, 24, or 32 hours, the medium was removed and cells were washed three times with cold PBS buffer. 0.9 mL lysis buffer was used to lyse cells in each dish, and 0.9 mL of diluents buffer was used to dilute each of the cell lysate. The lysate was incubated in the provided 96 well plate at 4° C. for 24 hours.
(§4) ELISA was used to quantify the amount of several key apoptosis signal molecules over time in the HeLa cells incubated with 280 μM D-2a (FIG. 3E).

active PARP = assay: Apoptosis pathway assay (ELISA), active PARP; format: cell-based, human; conditions: HeLa cells, 280 μM, at 24 and 32 hours of incubation
Protocol: as §3, §4

MES-SA/Dx5 cells [7] = assay: MES-SA/Dx5 tumor model in nude mice; format: in vivo; conditions: subcutaneous and peritumoral, 800 μg dose (~32 mg/kg), 6 times every 3 days
Protocol: Nine nude mice were used for experiments to define the tumor growth curve. 1×10^7 MES-SA/Dx5 cells were implanted into the mice via […] using a 25 G needle. Three of the tumor-bearing mice were used to define the tumor growth curve with control treatment, and six mice were given D-2a. The mice were injected subcutaneously and peritumorally (6 times, every 3 days starting at Day 1) with either 100 μL of D-2a at 8 μg/μL (800 μg dose or ˜32 mg/kg) in PBS buffer (experimental) or 100 μL of PBS buffer (control). Tumor volume measurements were made every three days, also starting on Day 1. Volume of tumors was measured by caliper.

HeLa cells [8] = assay: Viability of cells after cold shock and nanonet collection; format: cell-based, human; conditions: 4 hour incubation with D-2a in FBS-free MEM, cold shock and medium removal
Protocol: FIGS. 33A-33B show the cell compatibility of the use of nanonets/hydrogel for collecting cancer secretome. FIG. 33A is a Western blot showing the amount of tubulins in CM collected after 24 hours of incubation or pericellular nanonets collected after 3 to 9 hours of incubation. […] Both CM and nanonets were collected in FBS-free MEM. […] Two trials, each has three repeats.
In another experiment the viability of cells following nanonet collection was evaluated following 4 hour incubation with D-2a and cold shock.

[9] = HeLa cells incubated with precursor at 560 μM at 37° C. for 12 hours

## O=C(Cc1ccc2ccccc2c1)N[C@H](Cc1ccccc1)C(=O)N[C@H](Cc1ccccc1)C(=O)N[C@H](Cc1ccc(OP(=O)(O)O)cc1)C(=O)O [D-2a, Nap-D-Phe-D-Phe-D-Tyr(PO3H2)]
HeLa cells [1]; 140 μM, 2 hours at 37° C.
  Pericellular hydrogel formation on HeLa cells: Little hydrogelation
HeLa cells [1]; 280 μM, 2 hours at 37° C.
  Pericellular hydrogel formation on HeLa cells: formation of a hydrogel-like soft material (hydrogel) on the cell surface
HeLa cells [1]; 560 μM D-2a in the presence of ALP (0.1 U/mL), 2 hours
  Pericellular hydrogel formation on HeLa cells: hardly any pericellular hydrogelation
HeLa cells [1]; 560 μM D-2a with phosphatase inhibitors (Pierce), 2 hours
  Pericellular hydrogel formation on HeLa cells: prevent formation of the pericellular hydrogel
HeLa cells [1]; 560 μM, 2 hours at 37° C.
  Pericellular hydrogel formation on HeLa cells: formation of a hydrogel-like soft material (hydrogel) on the cell surface
HeLa cells [2]; [9]
  D-2b in pericellular hydrogel: 2053.9 µM
  D-2b in suspension medium: 502.5 µM
HeLa cells [2]; hydrogel of FIG. 2A, HeLa monolayers treated with 500 μM D-2a as printed
  Concentration of D-2b in the hydrogel (LC-MS): approximately 2.05 mM
[3]; 140 μM
  Hydrogel formation in HeLa cell conditioned medium: fails to form a hydrogel
[3]; 280 μM
  Hydrogel formation in HeLa cell conditioned medium: completely transforms from a solution to a hydrogel
[3]; 560 μM
  Hydrogel formation in HeLa cell conditioned medium: completely transforms from a solution to a hydrogel
Ect1/E6E7 cells
  Hydrogel formation on Ect1/E6E7 cells: hydrogels hardly form
[4]
  viability at 48 h, 280 µM: ~10%
[5]
  viability at 48 h, 280 µM: > 60%
MES-SA/dx5 cells [6]
  Growth inhibition: inhibits the growth
Active Caspase 3
  Amount of active Caspase 3: increase significantly
Active PARP
  Amount of active PARP: increase significantly
MES-SA/Dx5 cells [7]
  Day by which statistically significant differences between experimental and control groups were observed: ≤ 13 days
  Relative tumor volume / tumor growth: inhibited tumor growth
HeLa cells [8]
  Cell viability after nanonet collection: hardly affected cell viability
